According to patent US4968691A (priority 1986, dated 1990):
Where two headings read alike, the source gives them in different places.

Key:
muscarinic receptors [1] = assay: Radio ligand binding: displacement of 3H-Oxotremorine-M (muscarinic agonist) from rat cerebral cortex membranes; design: species or system Hooded Lister rats; conditions: displacement of 2 nM 3H-OXO-M, 2 mM magnesium chloride, 37° C., 30 min, tested as oxalate salts
muscarinic receptors [2] = format: binding, Hooded Lister rats; conditions: displacement of 0.27 nM 3H-QNB; rat cerebral cortex; 37° C., 30 min; tested as oxalate salts
[3] = Lambrecht and Mutschler, Arzneim. forsh. 24 (11) 1725, 1974; cited from earlier work

SMILES	IC50 (muscarinic receptors [1]) [µM]	IC50 (muscarinic receptors [2]) [µM]	cholinergic activity [3]
Cc1noc(C2CN3CCC2CC3)n1 (racemic) [E1, (±) 3-(3-Methyl-1,2,4-oxadiazol-5-yl)-1-azabicyclo [2.2.2]octane]	0.015	1.84	–
Cc1nc(C2CN3CCC2CC3)no1 (racemic) [E2, (±) 3-(5-Methyl-1,2,4-oxadiazol-3-yl)-1-azabicyclo [2.2.2]octane]	1.1	17	–
Cc1nnc(C2CN3CCC2CC3)o1 (racemic) [E4, (±) 3-(5-Methyl-1,3,4-oxadiazol-2-yl)-1-azabicyclo [2.2.2]octane]	1	15	–
c1coc(C2CN3CCC2CC3)n1 (racemic) [E5, (±) 3-(1,3-Oxazol-2-yl)-1-azabicyclo[2.2.2]octane]	0.63	27	–
c1nnc(C2CN3CCC2CC3)o1 (racemic) [E8, (±) 3-(1,3,4-Oxadiazol-2-y.)-1-azabicyclo[2.2.2]octane]	2.8	63	–
Cc1noc([C@H]2C[C@@H]3CCN(C3)C2)n1 (relative stereo) [E3, (±) exo-3-(3-Methyl-1,2,4-oxadiazol-5-yl)-1-azabicyclo [3.2.1]octane]	0.025	1.84	–
Cc1noc([C@@H]2CN3CCC[C@@H]2C3)n1 (relative stereo) [E6, (±) exo-6-(3-Methyl-1,2,4-oxadiazol-5-yl)-1-azabicyclo [3.2.1]octane]	0.041	2.3	–
c1coc([C@H]2C[C@@H]3CCCN(C3)C2)n1 (relative stereo) [E9, (±) exo-3-(1,3-Oxazol-2-yl 1-azabicyclo[3.3.1]nonane]	0.16	3.1	–
Cc1noc([C@@H]2CN3CC[C@@H]2C3)n1 (relative stereo) [E10, (±) exo-3-(3-Methyl-1,2,4-oxadiazol-5-yl)-1-azabicyclo [2.2.1]heptane]	0.0035	1.1	–
COC(=O)C1CN2CCC1CC2 (stereo not shown) [3-Methoxycarbonylquinuclidine]	–	–	possess cholinergic activity
